{
  "source": "paper PMC10439952",
  "about": "“JT002, a small molecule inhibitor of the NLRP3 inflammasome for the treatment of autoinflammatory disorders” (Scientific Reports, 2023)",
  "tested_on": "Nlrp3 A350V/+ CreT knock-in mice",
  "experiment": "Nlrp3 A350V/+ CreT knock-in mouse model of Muckle Wells syndrome",
  "type": "in vivo",
  "conditions": "30 mg/kg orally once daily",
  "protocol": "The effect of JT002 treatment on systemic and hepatic inflammation and hepatic fibrosis was evaluated in vivo using a murine Nlrp3 knock-in (KI) model of human Muckle Wells syndrome. In humans, mutation of alanine 352 to valine (A352V) in NLRP3 results in the constitutively active NLRP3 inflammasome which leads to excessive cytokine production and a clinical presentation characteristic of MWS[11]. The Nlrp3^A350V/+ CreT KI murine model (Nlrp3 KI model) contains a conditional A350V autosomal-dominant mutation that is analogous to the human A352V mutation[13],[23],[25]. In this model, mutant Nlrp3 expression occurs only in mice expressing Cre recombinase, which is inducible through the administration of tamoxifen, thus allowing for temporal control of the gain-of-function mutant Nlrp3. In vehicle-control mice, tamoxifen-induced activation of mutant Nlrp3 produces an inflammatory and fibrotic phenotype consisting of weight loss, increased liver weight, elevated liver alanine aminotransferase (ALT), systemic and hepatic neutrophilia, increased hepatic collagen deposition, and increased numbers of activated hepatic stellate cells (HSCs)[13],[23],[25]. In the Nlrp3^A350V/+ CreT study, vehicle or 30 mg/kg JT002 (n = 4/group) was dosed orally once daily starting one day prior to the first administration of tamoxifen. One animal from each group was found dead on day 4 and day 11 from the JT002 dosed group and the vehicle group, respectively, leaving only 3 animals per group. […] Serum levels of ALT in vehicle-treated mice averaged 186 U/L while ALT levels were reduced to 93 U/L in mice administered JT002 (Fig. 4C).\nTotal RNA was isolated from liver tissue (~ 50 mg) via syringe homogenization in TRIzol™ and cDNA synthesized using the iScript™ cDNA Synthesis kit (Biorad, Hercules, CA, USA). Real-time PCR was performed using TaqMan Fast Advanced Master Mix (ThermoFisher) and samples were amplified using QuantStudio-7 (ThermoFisher) in accordance with manufacturers’ instructions. The following TaqMan Gene Expression Assays (cat. no. 4331182, Applied Biosystems, Foster City, CA) were used: Acta2, Mm00725412_s1; Ctgf, Mm01192933_g1; Mpo, Mm01298424_m1; Pycard, Mm00445747_g1; Casp1, Mm00438023_m1; Il1b assay ID Mm00434228_m1.\nNlrp3^A350V/+ CreT knock-in mice were provided by Hal M. Hoffman, University of California, San Diego, USA. The study was performed using two randomized groups of male and female Nlrp3^A350V/+ CreT mice (n = 4/group) between 6- and 8-weeks of age at the start of the study. Vehicle (0.5% methyl cellulose, 0.25% Tween 80 in 50 mM NaH2PO4/Na2HPO4 at pH 7.8) or JT002 at 30 mg/kg was administered orally once daily for 30 days starting on Day 1. Tamoxifen (free base) (MP Biomedicals, Solon, OH, USA) was prepared in 90% sunflower seed oil and 10% ethanol and administered at 50 mg/kg intraperitoneally (IP) daily for 4 consecutive days, starting on Day 1, followed by a booster injection on Day 16. Mice were weighed every day to monitor compound activity. On Day 29, a submandibular cheek bleed was performed to obtain whole blood for total blood cell counting. Mice were euthanized on Day 30 and blood and livers were harvested and stored appropriately. Tissue specimens were fixed in 10% formalin and subsequently embedded in paraffin for histopathological assessments, or snap frozen in liquid N2 and stored in low temperature freezers. Complete blood counts and differentials were conducted on a HemaVet Auto Blood Analyzer (Drew Scientific, Miami Lakes, FL, USA). In vitro quantitative determination of alanine aminotransferase (ALT) in serum was performed using the Infinity™ ALT (GPT) Liquid Stable Reagent (cat. n. TR71121, Fisher Diagnostics, Middletown, VA, USA). Sirius Red staining and immunohistochemistry for hepatic MPO and αSMA were performed as described previously.",
  "data": [
    {"smiles": "CO[C@@H]1COc2c(S(=O)(=O)NC(=O)Nc3c4c(cc5c3CCC5)CCC4)cnn2C1", "note": "[JT002]", "values": [
      {"measurement": "body weight loss", "value": "prevented the body weight loss"},
      {"measurement": "circulating eosinophil count", "value": "strong trend for reduced"},
      {"measurement": "circulating neutrophil count", "value": "significant normalization"},
      {"measurement": "circulating total white blood cell count", "value": "significant normalization"},
      {"measurement": "degree of liver inflammation by H&E staining", "value": "visible reduction in the degree of inflammation"},
      {"measurement": "hepatic collagen content (Picrosirius red staining)", "value": "considerably reduced"},
      {"measurement": "hepatic gene expression of Acta2", "value": "substantially downregulated"},
      {"measurement": "hepatic gene expression of Casp1", "value": "substantially reduced"},
      {"measurement": "hepatic gene expression of Ctgf", "value": "substantially downregulated"},
      {"measurement": "hepatic gene expression of Il1b", "value": "substantially reduced"},
      {"measurement": "hepatic gene expression of Mpo", "value": "substantially reduced"},
      {"measurement": "hepatic gene expression of Pycard (ASC)", "value": "substantially reduced"},
      {"measurement": "reduction in hepatic immunostaining for αSMA (HSC activation)", "value": 93, "unit": "%"},
      {"measurement": "reduction of hepatic neutrophil recruitment (myeloperoxidase immunostaining)", "value": 91, "unit": "%"},
      {"measurement": "liver weight as a percent of body weight", "setting": "vehicle 9.4", "value": 5.7, "unit": "%"},
      {"measurement": "serum ALT level", "setting": "vehicle 186 U/L", "value": 93, "unit": "U/L"}
    ]}
  ]
}
